Experimental findings from paper PMC9330635, “Halogenated Pyrrolopyrimidines with Low MIC on Staphylococcus aureus and Synergistic Effects with an Antimicrobial Peptide” (Antibiotics, 2022) are described below.

The subject of one series is S. aureus (ATCC29213). Briefly: MIC by broth microdilution, S. aureus. The format is cell-based, Staphylococcus aureus. The following applies: for MIC: Staphylococcus aureus; for Activity towards S. aureus (in words): culture, MIC assay. As to the method: (§1) In this study, we have, therefore, altered our strategy and used minimal inhibitory concentration assays to identify and improve antibacterial agents. A total of 10 pyrrolopyrimidines with variation of the 4-amino group were assayed for their MIC in E. coli (MG1655) and S. aureus (ATCC29213) using the broth microdilution method. Subsequently, the compounds were also counter-screened for their inhibition of human EGFR.
(§2) The MIC of compound 1–21 towards Escherichia coli (MG1655) and Staphylococcus aureus (ATCC29213) was determined following the standards that were recommended by the Clinical and Laboratory Standards Institute (CLSI) for the broth microdilution method. Briefly, the bacterial suspensions were adjusted to 0.5 McFarland standard (~1 × 10^8 colony forming units (CFU)/mL) and diluted 1:200 in Cation-Adjusted Mueller-Hinton Broth (CAMHB, […], […]). The suspension was subsequently added to polypropylene microtiter plates (100 µL/well, ~5 × 10^4 CFU/well) that were already prepared with different concentrations of the various halogenated fused pyrimidines (11 µL/well, two-fold serial dilutions). The plates were incubated at 37 °C overnight before inspection for visible growth and determination of the MIC values.

For the next series, the target named is T1, human EGFR (Homo sapiens, UniProt P00533).
T1 construct: purchased Invitrogen (ThermoFisher), assay service
Briefly: Enzymatic EGFR (ErbB1) inhibition, Z'-LYTE. It is filed as biochemical. The settings on record: 100 nM compound, ATP equal to KM. As to the method:
The compounds were supplied in a 10 mM DMSO solution, and enzymatic EGFR (ErbB1) inhibition potency was determined by Invitrogen (ThermoFisher) using their Z’-LYTE® assay technology. The compounds were tested for their inhibitory activity at 100 nM in duplicates. The IC50 values that were reported for 1 and 5 are based on the average of 2 titration curves (20 data points), and were calculated from activity data with a four-parameter logistic model using SigmaPlot (Windows Version 12.0 from Systat Software, Inc., Palo Alto, CA, USA). Unless stated otherwise, the ATP concentration that was used was equal to apparent KM.

A further series deals with E. coli (MG1655). Briefly: MIC by broth microdilution, E. coli. The settings on record: E. coli MG1655, broth microdilution; for MIC: Escherichia coli. It is filed as cell-based, Escherichia coli. As to the method: as §1, §2
A general note: Broth dilution looks for growth in wells or tubes with falling amounts of substance.

In the next series the test system is S. aureus. Briefly: MIC towards S. aureus in combination with the peptide betatide. The format is cell-based, Staphylococcus aureus. The settings on record: betatide 8 mg/L (half its MIC). As to the method: The concentration of betatide was 8 mg/L, which corresponds to half the MIC concentration.
as §2

Setting [1] is: ATCC29213, S. aureus, single agent (Table 3), read-out: Single Comp. MIC.
The mark [2] stands for this setting: S. aureus ATCC29213, broth microdilution, read-out: S. aureus MIC.

A word on the MIC: it is the lowest concentration that inhibits growth of the organism. By inhibition is commonly meant how much of the control response was suppressed. A higher inhibition goes with strong suppression. Usually melting point stands for the temperature, or range, at which the solid turns liquid.

≈ marks a conversion by molar mass, not a printed value. Where two headings read alike, the source gives them in different places. Where only a bound is given, the exact number is not on record here.

For `C[C@@H](Nc1ncnc2[nH]c(-c3cccc(O)c3)cc12)c1ccc(Br)cc1` [Compound 19, (R)-3-(4-((1-(4-Bromophenyl)ethyl)amino)-7H-pyrrolo[2,3-d]pyrimidin-6-yl)phenol], the MIC in the series on S. aureus (ATCC29213) (setting [1]) is 8 µg/mL (≈ 19.5 µM); with S. aureus (ATCC29213) (setting [2]), 16 µg/mL (≈ 39.1 µM); in the series on E. coli (MG1655) it was > 128 µg/mL. For the same compound, 0.1 µM produced 73% inhibition on human EGFR. For the same compound, the “Combination with Betatide MIC” value in the series on S. aureus came to 2 µg/mL.
Turning to `C[C@@H](Nc1ncnc2[nH]c(-c3ccc(O)cc3)cc12)c1ccc(I)cc1` (hydrate or solvate) [Compound 6, (R)-4-(4-((1-(4-Iodophenyl)ethyl)amino)-7H-pyrrolo[2,3-d]pyrimidin-6-yl)phenol], the melting point is 254.9 to 256 °C (dec.).
As to `C[C@@H](Nc1ncnc2[nH]c(-c3ccc(O)cc3)cc12)c1ccc(F)cc1` [Compound 3], the MIC with S. aureus (ATCC29213) (setting [2]) and against E. coli (MG1655) was > 128 µg/mL each time. The “Activity towards S. aureus (in words)” value in the series with S. aureus (ATCC29213) is “inactive”. The compound also had an inhibition at 0.1 µM against human EGFR of 92%.
As to `C[C@@H](Nc1ncnc2[nH]c(-c3ccc([N+](=O)[O-])cc3)cc12)c1ccc(Br)cc1` [Compound 14, (R)-N-(1-(4-Bromophenyl)ethyl)-6-(4-nitrophenyl)-7H-pyrrolo [2,3-d] pyrimidin-4-amine], the MIC in the series with S. aureus (ATCC29213) (setting [2]) and in the series on E. coli (MG1655) was > 128 µg/mL each time. This compound yielded an inhibition at 0.1 µM against human EGFR of 33%.
Turning to `C[C@@H](Nc1ncnc2[nH]c(-c3ccccc3)cc12)c1ccc(Br)cc1` [Compound 12, (R)-N-(1-(4-Bromophenyl)ethyl)-6-phenyl-7H-pyrrolo[2,3-d] pyrimidin-4-amine], the MIC in the series with S. aureus (ATCC29213) (setting [2]) and with E. coli (MG1655) was > 128 µg/mL throughout. On human EGFR, this compound had an inhibition at 0.1 µM of 66%.
For the compound `C[C@@H](Nc1ncnc2[nH]c(-c3ccccc3O)cc12)c1ccc(Br)cc1` [Compound 18, (R)-2-(4-((1-(4-Bromophenyl)ethyl)amino)-7H-pyrrolo[2,3-d]pyrimidin-6-yl)phenol], the MIC in the series on S. aureus (ATCC29213) (setting [2]) and with E. coli (MG1655) was > 128 µg/mL in each case. This compound also came in with an inhibition at 0.1 µM at human EGFR of 80%.
Take `C[C@@H](Nc1ncnc2[nH]c(-c3ccc(F)cc3)cc12)c1ccc(Br)cc1` [Compound 13, (R)-N-(1-(4-Bromophenyl)ethyl)-6-(4-fluorophenyl)-7H-pyrrolo[2,3-d] pyrimidin-4-amine]: the MIC in the series on S. aureus (ATCC29213) (setting [2]) and against E. coli (MG1655) was > 128 µg/mL in each case. On human EGFR, this compound displayed an inhibition at 0.1 µM of 58%.
`Cc1ccc([C@@H](C)Nc2ncnc3[nH]c(-c4ccc(O)cc4)cc23)cc1` [Compound 2, (R)-4-(4-((1-(p-Tolyl)ethyl)amino)-7H-pyrrolo[2,3-d]pyrimidin-6-yl)phenol]: the MIC is 16 µg/mL (≈ 46.5 µM) in the series on S. aureus (ATCC29213) (setting [1]), 16 µg/mL (≈ 46.5 µM) with S. aureus (ATCC29213) (setting [2]) and > 128 µg/mL in the series with E. coli (MG1655). The same compound came in with an inhibition at 0.1 µM at human EGFR of 91%. Moreover, the “Combination with Betatide MIC” value in the series with S. aureus worked out at 8 µg/mL.
Take `C[C@@H](Nc1ncnc2[nH]c(-c3ccc(S(N)(=O)=O)cc3)cc12)c1ccc(Br)cc1` [Compound 17, (R)-4-(4-((1-(4-Bromophenyl)ethyl)amino)-7H-pyrrolo[2,3-d]pyrimidin-6-yl)benzene-sulfonamide]: the MIC in the series on S. aureus (ATCC29213) (setting [2]) and against E. coli (MG1655) was > 128 µg/mL throughout. The compound also registered an inhibition at 0.1 µM against human EGFR of 85%.
As to `COc1ccc(-c2cc3c(N[C@H](C)c4ccc(Br)cc4)ncnc3s2)cc1` [Compound 20, (R)-N-(1-(4-Bromophenyl)ethyl)-6-(4-methoxyphenyl)thieno [2,3-d] pyrimidin-4-amine], the melting point was 107.1 to 109.4 °C. Moreover, in the series with S. aureus (ATCC29213) (setting [2]), the MIC is > 128 µg/mL. Also, the “Activity towards S. aureus (in words)” value in the series on S. aureus (ATCC29213) is recorded as “no activity”. In addition, at 0.1 µM the inhibition against human EGFR was 12%. In the series on E. coli (MG1655), the MIC was > 128 µg/mL.
Consider `COc1ccc(-c2cc3c(N[C@@H](C)c4ccc(Br)cc4)ncnc3[nH]2)cc1` [Compound 11, (S)-N-(1-(4-Bromophenyl)ethyl)-6-(4-methoxyphenyl)-7H-pyrrolo[2,3-d]pyrimidin-4-amine], for which the MIC in the series with S. aureus (ATCC29213) (setting [2]) and in the series on E. coli (MG1655) was > 128 µg/mL throughout.
For `C[C@@H](Nc1ncnc2sc(-c3ccc(O)cc3)cc12)c1ccc(Br)cc1` [Compound 21, (R)-4-(4-((1-(4-Bromophenyl)ethyl)amino)thieno[2,3-d]pyrimidin-6-yl)phenol], the MIC with S. aureus (ATCC29213) (setting [1]) is 32 µg/mL (≈ 75.1 µM); with S. aureus (ATCC29213) (setting [2]), 32 µg/mL (≈ 75.1 µM); in the series on E. coli (MG1655), > 128 µg/mL. The compound also yielded an inhibition at 0.1 µM at human EGFR of 5%. The “Combination with Betatide MIC” value in the series with S. aureus was 4 µg/mL.
`COC(=O)c1ccc(-c2cc3c(N[C@H](C)c4ccc(Br)cc4)ncnc3[nH]2)cc1` [Compound 16, Methyl (R)-4-(4-((1-(4-bromophenyl)ethyl)amino)-7H-pyrrolo[2,3-d]pyrimidin-6-yl)be-nzoate]: the MIC with S. aureus (ATCC29213) (setting [2]) and in the series with E. coli (MG1655) was > 128 µg/mL in each case. This compound displayed an inhibition at 0.1 µM against human EGFR of 42%.
With `C[C@@H](Nc1ncnc2[nH]c(-c3ccc(N)cc3)cc12)c1ccc(Br)cc1` [Compound 15, (R)-6-(4-Aminophenyl)-N-(1-(4-bromophenyl)ethyl)-7H-pyrrolo[2,3-d]pyrimidin-4-amine], the MIC in the series with S. aureus (ATCC29213) (setting [2]) and in the series with E. coli (MG1655) was > 128 µg/mL each time. At human EGFR, this compound returned an inhibition at 0.1 µM of 90%.
`C[C@@H](Nc1ncnc2sc(-c3ccc(O)cc3)cc12)c1ccc(Br)cc1` (hydrate or solvate) [Compound 21, (R)-4-(4-((1-(4-Bromophenyl)ethyl)amino)thieno[2,3-d]pyrimidin-6-yl)phenol] showed a melting point of 144.1 to 145.4 °C.
For `C[C@@H](Nc1ncnc2[nH]c(-c3ccc(O)cc3)cc12)c1cccc(Br)c1` [Compound 7, (R)-4-(4-((1-(3-Bromophenyl)ethyl)amino)-7H-pyrrolo[2,3-d]pyrimidin-6-yl)phenol], the figures for the MIC with S. aureus (ATCC29213) (setting [1]), with S. aureus (ATCC29213) (setting [2]) and in the series with E. coli (MG1655) were 16 µg/mL (≈ 39.1 µM), 16 µg/mL (≈ 39.1 µM) and > 128 µg/mL, respectively. Moreover, 0.1 µM produced 89% inhibition on human EGFR. Besides, the “Combination with Betatide MIC” value in the series on S. aureus amounted to 4 µg/mL.
With `C[C@@H](Nc1ncnc2[nH]c(-c3ccc(O)cc3)cc12)c1ccc(I)cc1` [Compound 6, (R)-4-(4-((1-(4-Iodophenyl)ethyl)amino)-7H-pyrrolo[2,3-d]pyrimidin-6-yl)phenol], the values for the MIC in the series with S. aureus (ATCC29213) (setting [1]), with S. aureus (ATCC29213) (setting [2]) and in the series with E. coli (MG1655) were 8 µg/mL (≈ 17.5 µM), 8 µg/mL (≈ 17.5 µM) and > 128 µg/mL, respectively. This compound also yielded an inhibition at 0.1 µM against human EGFR of 43%. For the same compound, the “Combination with Betatide MIC” value in the series on S. aureus came out at 2 µg/mL.
For the compound “(R)-4-(4-((1-(4-Bromophenyl)ethyl)(methyl)amino)-7H-pyrrolo [2,3-d]pyrimidin-6-yl)phenol [Compound 10]”, the “S. aureus MIC” value with S. aureus (ATCC29213) (S. aureus ATCC29213, broth microdilution) was >128 µg/mL. Moreover, in the series on S. aureus (ATCC29213), the “Activity towards S. aureus (in words)” value was “abolished all activity”. Further, on human EGFR, the “Human EGFR % inhibition” value was found to be 16%. Further, the “E. coli MIC” value in the series on E. coli (MG1655) is >128 µg/mL.
With `C[C@H](Nc1ncnc2[nH]c(-c3ccc(O)cc3)cc12)c1ccc(Br)cc1` [Compound 9, (S)-4-(4-((1-(4-Bromophenyl)ethyl)amino)-7H-pyrrolo[2,3-d]pyrimidin-6-yl)phenol], the MIC with S. aureus (ATCC29213) (setting [2]) and in the series with E. coli (MG1655) was > 128 µg/mL throughout. For the same compound, the “Activity towards S. aureus (in words)” value with S. aureus (ATCC29213) is “abolished all activity”.
Take `Oc1ccc(-c2cc3c(NCc4ccc(Br)cc4)ncnc3[nH]2)cc1` [Compound 8, 4-(4-((4-Bromobenzyl)amino)-7H-pyrrolo[2,3-d]pyrimidin-6-yl)phenol]: the MIC in the series on S. aureus (ATCC29213) (setting [2]) and against E. coli (MG1655) was > 128 µg/mL each time. For the same compound, the “Activity towards S. aureus (in words)” value in the series on S. aureus (ATCC29213) is “abolished all activity”. Also, on human EGFR, the inhibition at 0.1 µM was found to be 67%.
